Reference: patent publication US20230181905A1, “Systems, Devices, and Methods for Enhancing the Neuroprotective Effects of Non-Invasive Gamma Stimulation with Pharmacological Agents” (Massachusetts Institute of Technology, priority 2021, published 2023)

Assays:
Assay type in all cases: in vivo, mouse
vGLUT1 = vGLUT1 western blot and puncta, overall and within WFA; conditions: 5×FAD mice
Text: It was reasoned that the increased WFA coverage and enhanced phase locking of neurons after these treatments are related. […] WFA has been predominantly observed around interneurons, specifically PV interneurons. vGLUT1 (Synaptic Systems, #1135 302), an excitatory synaptic marker, was labeled with WFA. It was observed that the overall vGLUT1 signal was higher after Plx3397+GENUS treatment in mice (ANOVA, F (3,22)=3,686, P=0.0273) (FIGS. 18A, 18B). WFA was 3D rendered and surface created and examined (vGLUT1) within WFA, and observed increased vGLUT1 within WFA (Nested ANOVA, F (3,29)=3.377, P=0.0493) (FIGS. 18A, 18C).
vGAT and vGLUT1 puncta: LSM 710, with a 40× objective, was used to acquire the images. The entire […] thickness of the slices was acquired in Z stacks—80 per image (step of 0.5 μm). The spot-count inbuilt function in Imarisx64 9.3 was used to count cells automatically.
These observations point to synaptic connectivity, PNN extracellular architecture, and myelination as biological processes that GENUS impacts to improve the outcomes in Plx3397 administered 5×FAD mice. To further validate this, additional biochemical analyses were performed. […]
The brain was perfused with PBS and fixed with 4% PFA. […] Signal intensities were quantified using ImageJ 1.46q and normalized to values of loading control.

IBA1+ microglia = test: Iba1+ microglia counts in APOE4-KI 5×FAD hippocampus
Procedure: Hippocampal mouse brain sections were stained for Iba1, a microglia/macrophage specific marker, and cell numbers were counted. […] Next, 7-8 month old male APOE4-KI 5×FAD animals were treated with 3 weeks of PLX3397 diet (or control), followed by 21 days of A+V GENUS, during which animals remained on their diets (FIG. 37).

D54D2 positive amyloid = test: D54D2 amyloid immunohistochemistry in 5×FAD mice
Text: It was next sought to understand whether Plx3397 administration-dependent electrophysiological alterations were attributed to changes in amyloid plaque levels. […] In the cuprizone model of demyelination, Plx33977 administration preserved myelin. It was thus considered whether electrophysiological alterations are associated with myelin levels in Plx3397 treated 5×FAD mice.

5×FAD mice = test: Novel object recognition test in 5×FAD mice; conditions: chance level 50%, control 51.33±4.15
Procedure: Given the neuroprotective effect of Plx3397+GENUS treatment, whether this treatment also impacted learning and memory was evaluated. Mice were tested in an open field (OF) and assessed for changes in anxiety and activity levels, followed by a novel object recognition (NOR) test of memory. 10-month-1d 5×FAD mice were treated with Plx3397. Following 20 days administration of Plx3397 chow, untreated- and Plx3397 treated 5×FAD mice (which continued PLX administration) were subjected to 30 days of daily GENUS. Mice were tested in OF and NOR during the last week of these treatments. […] Next, CK-p25 mice were treated for 42 days and assessed behavioral performance.
For OF, mice were introduced into an open field box (dimensions: length=460 mm, width=460 mm and height=400 mm; TSE-Systems) and were tracked using Noldus (Ethovision) for 12 min, with time spent in the center and peripheral area of the arena measured. […] Mouse behavior was monitored for 7 min. Time spent exploring both the familiar and novel objects was recorded using Noldus and computed offline. Percentage of novelty preference index was calculated as follows: time exploring novel object (Nt) divided by total time exploring novel and familiar (Ft) objects and presented in %−{[Nt/Nt+Ft]*100}.

`FC(F)(F)c1ccc(CNc2ccc(Cc3c[nH]c4ncc(Cl)cc34)cn2)cn1` [Plx3397, Pexidartinib] was tested, and the “vGLUT1 level (western blot)” value (vGLUT1; visual cortex, control 100±7.30) was 130.1±10.05, the “vGLUT1 synaptic puncta in the WFA of PV interneurons” value (vGLUT1; controls 313.4±13.20) was 332.7±13.14 % of no treatment control and the “microglia numbers (Iba1+ cell counts), GENUS vs no GENUS after depletion” value (IBA1+ microglia; APOE4-KI 5×FAD mice on PLX3397 diet) was “not further modified”. The microglia numbers (IBA1+ microglia; male APOE4-KI 5×FAD mice, hippocampus, PLX3397 diet vs standard diet) was “significant reduction”, the amyloid (D54D2 positive amyloid; hippocampus, chronic Plx3397 vs control) was “did not affect” and the “amyloid levels (D54D2 positive amyloid signal)” value (D54D2 positive amyloid; visual cortex, chronic Plx3397, not affected vs control) was 9894±1181 au. The “preference for the novel object in the NOR test (novelty index)” value (5×FAD mice) was 57.55±7.00%.
